Read-outs that look alike come from different tables or passages of the source.
Columns and labels:
[1] = tested on: MRSA-5; assay: Sensitivity test (MIC, broth dilution per CLSI); type: cell-based, Methicillin-resistant S. aureus; conditions: strain MRSA-5, MHB with 2% NaCl, 34° C., 24 hours, minimum concentration without colony growth
Protocol: (§1) By referring to the methods and standards of the American Clinical and Laboratory Standards Institute (CLSI) for antimicrobial susceptibility testing, the drug resistance of each strain was verified. The MHB medium used in this test contained 2% NaCl (w/v).
(§2) Preparation of test bacteria: each bacterium was respectively inoculated in 5 ml MHB medium, and cultured overnight at 37° C. on a shaker. The bacterial solution was adjusted to 0.5 McFarland turbidity (MCF) unit, and further diluted by 100 folds. The final bacterial concentration was 5×10^5 cfu/ml.
(§3) Preparation of the flavonoids extract of C. paliurus leaves for application: 79.8 mg powder of the flavonoid extract from C. paliurus leaves prepared in Example 1 (based on the flavonoids proportion of 67.3581 wt. % in the flavonoids extract of C. paliurus leaves, the amount of flavonoids in the powder was 53.75 mg) was dissolved in 0.32 ml of DMSO, and further diluted with 3.68 ml MHB medium, to obtain the application solution of C. paliurus leaf with a flavonoids concentration at 13.44 mg/ml.
(§4) 100 μl of medium was added into the second well, and serial 2-fold dilutions were prepared until to the ninth well. The 10th well was set as the medium control.
(§5) Sensitivity test: 100 μl of the bacterial solution prepared above was added to the wells with serial concentration of drugs and the medium control. The plate was placed in a humidified box and incubated at 34° C. for 24 hours. 20 μl of each bacterial solution was taken and diluted 50 times with the medium, then 100 μl of the diluted bacterial solution was spread on the culture plate and incubated overnight at 37° C. The minimum drug concentration without colony growth was determined as the minimum inhibitory concentration (MIC).

[2] = tested on: MRSA-1; assay: Sensitivity test (MIC, broth dilution per CLSI); type: cell-based, Methicillin-resistant S. aureus; conditions: strain MRSA-1, MHB with 2% NaCl, 34° C., 24 hours, minimum concentration without colony growth
Protocol: as §1, §2, §3, §4, §5

[3] = tested on: MRSA-3; assay: Sensitivity test (MIC, broth dilution per CLSI); type: cell-based, Methicillin-resistant S. aureus; conditions: strain MRSA-3, MHB with 2% NaCl, 34° C., 24 hours, minimum concentration without colony growth
Protocol: as §1, §2, §3, §4, §5

[4] = tested on: MRSA-2; assay: Sensitivity test (MIC, broth dilution per CLSI); type: cell-based, Methicillin-resistant S. aureus; conditions: strain MRSA-2, MHB with 2% NaCl, 34° C., 24 hours, minimum concentration without colony growth
Protocol: as §1, §2, §3, §4, §5

[5] = tested on: S. aureus ATCC25923; assay: Sensitivity test (MIC, broth dilution per CLSI); type: cell-based; conditions: strain ATCC25923, MHB with 2% NaCl, 34° C., 24 hours, minimum concentration without colony growth
Protocol: as §1, §2
as §3, with “mg/ml. […]” for “mg/ml.”
(§6) Sensitivity test: 100 μl of the bacterial solution prepared above was added to the wells with serial concentration of drugs and the medium control. […] The minimum drug concentration without colony growth was determined as the minimum inhibitory concentration (MIC).

[6] = tested on: MRSA strains; assay: Sensitivity test, MRSA strains compared with ATCC25923; type: cell-based, Methicillin-resistant S. aureus; conditions: each MRSA strain vs ATCC25923
Protocol: as §1, §2
as §3, with “mg/ml. […]” for “mg/ml.”
as §6

[7] = tested on: MRSA-4; assay: Sensitivity test (MIC, broth dilution per CLSI); type: cell-based, Methicillin-resistant S. aureus; conditions: Staphylococcus aureus; strain MRSA-4; MHB with 2% NaCl, 34° C., 24 hours; minimum concentration without colony growth
Protocol: Sensitivity test: 100 μl of the bacterial solution prepared above was added to the wells with serial concentration of drugs and the medium control. The plate was placed in a humidified box and incubated at 34° C. for 24 hours. […] The minimum drug concentration without colony growth was determined as the minimum inhibitory concentration (MIC).

[8] = Staphylococcus aureus, read-out: MIC

MIC [1] [µg/mL]	MIC [2] [µg/mL]	MIC [3] [µg/mL]	MIC [4] [µg/mL]	MIC [5] [µg/mL]	SMILES	Sensitivity of each MRSA strain compared with S. aureus ATCC25923 [6]	MIC [1, 8] [µg/mL]	MIC [2, 8] [µg/mL]	MIC [3, 8] [µg/mL]	MIC [4, 8] [µg/mL]	MIC [7] [µg/mL]	MIC [5, 8] [µg/mL]
0.5	0.5	0.5	0.5	0.125	Cc1onc(-c2ccccc2)c1C(=O)N[C@@H]1C(=O)N2[C@@H]1SC(C)(C)[C@@H]2C(=O)[O-].[Na+] [oxacillin sodium]	lower than that of the standard strain of S. aureus ATCC25923						
					CC1(C)S[C@@H]2[C@H](NC(=O)Cc3ccccc3)C(=O)N2[C@H]1C(=O)O [penicillin sodium]	lower than that of the standard strain of S. aureus ATCC25923	4	4	1	1	32	0.0312

From patent publication US12605419B2, “Flavonoid extract of Cyclocarya paliurus leaves and antibacterial drugs and/or antibacterial agents containing thereof” (priority 2020, dated 2026)
